Assay results taken from PMC13254586, “C-terminal dimerization motifs control asynchronous chain elongation during modular polyketide biosynthesis [drawing 1]” (The Journal of Biological Chemistry, 2026).

Assays:
M1-DD = target: T1, M1-DD (Amycolatopsis mediterranei, UniProt O54666); test: cryo-EM structure; assay type: binding; conditions: covalent on CP Ser1538; Ppant occupies KS active site tunnel; elongation mode; 3.22 Å; Fab 1B2 bound
T1 construct: gene rifA; RIFS module 1 (KS-AT-DH0-KR-CP) with N- and C-terminal docking domains of the erythromycin assembly line, C-terminal His6; holo form, E. coli BAP1; homodimer

LM-M1-DD = target: T2, LM-M1-DD (Amycolatopsis mediterranei, UniProt O54666); test: LC-MS/MS-MRM of hydrolysed diketide, single turnover; assay type: biochemical; conditions: ATP/Mg2+, racemic MeMal-CoA, pH 7.3, room temperature
T2 construct: gene rifA; RIFS loading module plus module 1 bimodule (A-CP, KS-AT-DH0-KR-CP) with C-terminal docking domain (DD) of the erythromycin synthase; holo form, E. coli BAP1; Ni-NTA purified; homodimer
T2 sequence (O54666 1-2179 limits assumed): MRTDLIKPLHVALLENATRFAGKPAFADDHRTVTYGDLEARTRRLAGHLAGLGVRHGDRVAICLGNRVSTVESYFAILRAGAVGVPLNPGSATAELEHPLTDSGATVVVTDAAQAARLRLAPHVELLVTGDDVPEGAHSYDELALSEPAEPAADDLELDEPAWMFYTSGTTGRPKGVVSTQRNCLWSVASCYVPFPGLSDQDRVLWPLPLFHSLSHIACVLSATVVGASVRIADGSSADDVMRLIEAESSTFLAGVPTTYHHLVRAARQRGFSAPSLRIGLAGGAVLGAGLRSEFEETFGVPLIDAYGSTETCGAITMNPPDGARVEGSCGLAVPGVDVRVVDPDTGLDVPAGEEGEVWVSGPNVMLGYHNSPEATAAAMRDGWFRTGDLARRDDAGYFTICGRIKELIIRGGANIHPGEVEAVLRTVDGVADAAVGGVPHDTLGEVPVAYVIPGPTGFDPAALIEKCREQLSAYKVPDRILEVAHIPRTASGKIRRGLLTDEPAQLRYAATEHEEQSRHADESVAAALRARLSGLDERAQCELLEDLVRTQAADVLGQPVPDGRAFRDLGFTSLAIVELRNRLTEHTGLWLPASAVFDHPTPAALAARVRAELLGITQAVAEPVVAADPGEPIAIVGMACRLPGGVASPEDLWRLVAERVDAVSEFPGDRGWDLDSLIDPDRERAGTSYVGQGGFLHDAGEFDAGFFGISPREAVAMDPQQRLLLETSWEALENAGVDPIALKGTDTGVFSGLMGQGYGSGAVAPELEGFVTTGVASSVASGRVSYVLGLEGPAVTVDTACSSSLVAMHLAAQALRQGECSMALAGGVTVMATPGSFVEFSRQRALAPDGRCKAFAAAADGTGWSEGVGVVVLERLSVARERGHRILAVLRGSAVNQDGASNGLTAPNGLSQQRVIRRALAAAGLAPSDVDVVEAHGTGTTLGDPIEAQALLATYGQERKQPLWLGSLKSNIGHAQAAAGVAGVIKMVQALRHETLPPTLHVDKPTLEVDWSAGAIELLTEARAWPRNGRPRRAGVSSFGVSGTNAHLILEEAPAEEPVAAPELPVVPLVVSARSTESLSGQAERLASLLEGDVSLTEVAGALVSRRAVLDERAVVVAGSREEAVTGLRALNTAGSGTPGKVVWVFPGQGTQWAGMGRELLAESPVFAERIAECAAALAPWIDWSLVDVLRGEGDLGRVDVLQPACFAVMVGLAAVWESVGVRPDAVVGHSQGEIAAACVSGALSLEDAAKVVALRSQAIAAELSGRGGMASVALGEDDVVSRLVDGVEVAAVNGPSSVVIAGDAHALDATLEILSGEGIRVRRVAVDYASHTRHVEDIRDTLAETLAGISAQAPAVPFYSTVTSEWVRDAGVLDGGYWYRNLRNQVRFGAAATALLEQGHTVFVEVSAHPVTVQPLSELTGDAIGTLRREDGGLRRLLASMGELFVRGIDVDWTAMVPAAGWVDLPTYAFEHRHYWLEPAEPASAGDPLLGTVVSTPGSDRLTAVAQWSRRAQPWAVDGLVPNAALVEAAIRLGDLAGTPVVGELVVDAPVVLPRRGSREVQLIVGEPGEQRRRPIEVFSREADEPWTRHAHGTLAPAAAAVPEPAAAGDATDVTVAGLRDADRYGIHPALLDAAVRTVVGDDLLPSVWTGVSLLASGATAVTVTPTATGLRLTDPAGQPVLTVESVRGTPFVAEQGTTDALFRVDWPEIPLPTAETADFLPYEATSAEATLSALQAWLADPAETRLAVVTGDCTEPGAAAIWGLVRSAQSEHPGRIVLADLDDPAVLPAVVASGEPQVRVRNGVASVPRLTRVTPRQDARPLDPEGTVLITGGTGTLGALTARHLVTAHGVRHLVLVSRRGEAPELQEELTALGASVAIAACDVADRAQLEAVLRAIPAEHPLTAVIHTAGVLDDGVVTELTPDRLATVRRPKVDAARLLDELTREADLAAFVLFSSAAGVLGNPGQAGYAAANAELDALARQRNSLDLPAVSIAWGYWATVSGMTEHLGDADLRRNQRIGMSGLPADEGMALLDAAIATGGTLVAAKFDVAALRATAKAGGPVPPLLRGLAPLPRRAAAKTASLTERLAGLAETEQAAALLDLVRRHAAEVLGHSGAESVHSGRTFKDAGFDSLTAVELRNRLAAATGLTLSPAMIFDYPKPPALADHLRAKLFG

LM-M1-TEII° = target: T3, LM-M1-TEII° (Amycolatopsis mediterranei, UniProt O54666); test: as above; assay type: biochemical; conditions: ATP/Mg2+, racemic MeMal-CoA, NADPH; pH 7.3; room temperature
T3 construct: gene rifA; holo form, E. coli BAP1; homodimer
T3 sequence (O54666 1-2180 limits assumed): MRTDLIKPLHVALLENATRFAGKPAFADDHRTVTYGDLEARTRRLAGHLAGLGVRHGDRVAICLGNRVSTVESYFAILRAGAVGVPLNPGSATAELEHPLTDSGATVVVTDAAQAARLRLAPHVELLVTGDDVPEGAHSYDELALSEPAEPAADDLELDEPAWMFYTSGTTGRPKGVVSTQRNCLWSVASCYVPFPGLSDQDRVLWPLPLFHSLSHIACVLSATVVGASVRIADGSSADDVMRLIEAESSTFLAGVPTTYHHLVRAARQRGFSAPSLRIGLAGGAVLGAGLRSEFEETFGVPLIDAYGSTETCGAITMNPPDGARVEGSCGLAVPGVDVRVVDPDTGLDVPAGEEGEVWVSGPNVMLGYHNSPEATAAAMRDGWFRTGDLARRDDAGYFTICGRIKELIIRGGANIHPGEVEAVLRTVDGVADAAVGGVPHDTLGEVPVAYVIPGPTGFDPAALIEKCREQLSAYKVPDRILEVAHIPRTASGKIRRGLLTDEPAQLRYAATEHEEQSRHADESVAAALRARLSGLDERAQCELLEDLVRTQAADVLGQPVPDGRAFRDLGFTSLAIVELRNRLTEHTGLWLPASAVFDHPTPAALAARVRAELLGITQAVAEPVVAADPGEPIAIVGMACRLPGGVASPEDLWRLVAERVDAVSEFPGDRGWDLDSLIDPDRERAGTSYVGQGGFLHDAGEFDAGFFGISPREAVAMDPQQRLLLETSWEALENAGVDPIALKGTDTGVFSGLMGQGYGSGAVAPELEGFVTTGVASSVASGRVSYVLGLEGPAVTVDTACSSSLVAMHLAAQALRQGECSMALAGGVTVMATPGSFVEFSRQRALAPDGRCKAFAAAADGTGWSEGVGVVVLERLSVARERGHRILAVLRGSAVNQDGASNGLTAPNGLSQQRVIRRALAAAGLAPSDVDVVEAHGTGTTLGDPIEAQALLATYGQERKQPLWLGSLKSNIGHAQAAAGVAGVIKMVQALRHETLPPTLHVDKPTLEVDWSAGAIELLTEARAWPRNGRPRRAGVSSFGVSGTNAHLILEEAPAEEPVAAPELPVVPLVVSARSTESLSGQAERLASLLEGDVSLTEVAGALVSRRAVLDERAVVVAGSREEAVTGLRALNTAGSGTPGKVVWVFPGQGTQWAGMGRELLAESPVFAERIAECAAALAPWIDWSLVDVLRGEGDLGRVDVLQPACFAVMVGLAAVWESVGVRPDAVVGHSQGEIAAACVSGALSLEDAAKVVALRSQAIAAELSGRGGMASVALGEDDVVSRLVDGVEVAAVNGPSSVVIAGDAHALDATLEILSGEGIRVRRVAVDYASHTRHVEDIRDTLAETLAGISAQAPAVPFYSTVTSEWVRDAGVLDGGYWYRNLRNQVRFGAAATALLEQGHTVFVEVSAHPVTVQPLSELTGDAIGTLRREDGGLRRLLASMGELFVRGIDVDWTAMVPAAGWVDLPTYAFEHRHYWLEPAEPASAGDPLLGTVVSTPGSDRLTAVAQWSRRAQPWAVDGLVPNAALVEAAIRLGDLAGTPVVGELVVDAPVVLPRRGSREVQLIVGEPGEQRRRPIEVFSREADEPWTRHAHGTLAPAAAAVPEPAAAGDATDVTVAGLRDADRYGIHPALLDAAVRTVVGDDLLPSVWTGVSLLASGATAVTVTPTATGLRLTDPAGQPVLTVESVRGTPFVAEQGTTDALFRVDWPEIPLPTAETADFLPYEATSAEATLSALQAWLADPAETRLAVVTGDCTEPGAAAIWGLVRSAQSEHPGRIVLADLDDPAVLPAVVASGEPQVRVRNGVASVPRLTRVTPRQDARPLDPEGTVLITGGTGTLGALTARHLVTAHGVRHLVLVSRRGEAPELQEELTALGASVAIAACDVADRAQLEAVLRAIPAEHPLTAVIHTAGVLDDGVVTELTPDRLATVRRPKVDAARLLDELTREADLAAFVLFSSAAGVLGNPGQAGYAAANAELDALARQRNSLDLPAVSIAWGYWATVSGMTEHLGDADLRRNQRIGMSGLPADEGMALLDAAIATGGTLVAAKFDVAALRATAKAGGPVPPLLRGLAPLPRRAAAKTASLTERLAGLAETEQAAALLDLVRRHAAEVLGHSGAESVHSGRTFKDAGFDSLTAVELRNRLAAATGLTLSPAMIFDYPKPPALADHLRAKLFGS
T3 sequence (Q7BUF9 1-259 S94A partner): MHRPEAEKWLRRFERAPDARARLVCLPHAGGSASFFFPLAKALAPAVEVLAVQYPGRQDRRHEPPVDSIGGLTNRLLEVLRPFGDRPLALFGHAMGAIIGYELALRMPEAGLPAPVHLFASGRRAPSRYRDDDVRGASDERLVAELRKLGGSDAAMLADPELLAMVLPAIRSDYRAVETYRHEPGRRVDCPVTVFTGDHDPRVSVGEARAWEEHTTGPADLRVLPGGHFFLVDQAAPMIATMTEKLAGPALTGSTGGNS

CC(C)(COP(=O)(O)O)[C@@H](O)C(=O)NCCC(=O)NCCS [4′-phosphopantetheine]
cryo-EM structure (M1-DD): within the KS active site tunnel occupied by the Ppant cofactor

NC(=O)C1=CN([C@@H]2O[C@H](COP(=O)(O)OP(=O)(O)OC[C@H]3O[C@@H](n4cnc5c(N)ncnc54)[C@H](OP(=O)(O)O)[C@@H]3O)[C@@H](O)[C@H]2O)C=CC1 [NADPH]
LC-MS/MS-MRM of hydrolysed diketide, single turnover (LM-M1-DD; 1 mM NADPH present or absent, benzoate): expected time- and NADPH-dependent accumulation of hydrolyzed keto-d2

O=C(O)c1ccccc1 [benzoate]
LC-MS/MS-MRM of hydrolysed diketide, single turnover (LM-M1-DD; NADPH): both LM-M1-DD and LM-M1-TEII° were catalytically active
LC-MS/MS-MRM of hydrolysed diketide, single turnover (LM-M1-TEII°): both LM-M1-DD and LM-M1-TEII° were catalytically active
